Source: patent US20100022509A1, “Inhibitors of MshC and Homologs Thereof, and Methods of Identifying Same” (priority 2006, published 2010)
Like-named read-outs stand apart in the source and are kept apart here. Marks after values point to notes of the source that are not given here.

Assays:
Format in all cases: biochemical, M. tuberculosis
[1] = target: T1, MshC (Mycobacterium tuberculosis, UniProt P9WJM9); test: Inhibition studies of MshC ligase activity (HEPES pH 7.5, HPLC); conditions: for inhibition of the ligase activity, in words: 80-1600 μM, 70 μM L-Cys and 50 μM GlcN-Ins; for % inhibition: 50 μM GlcN-Ins and 70 μM Cys
T1 sequence (P9WJM9 1-414): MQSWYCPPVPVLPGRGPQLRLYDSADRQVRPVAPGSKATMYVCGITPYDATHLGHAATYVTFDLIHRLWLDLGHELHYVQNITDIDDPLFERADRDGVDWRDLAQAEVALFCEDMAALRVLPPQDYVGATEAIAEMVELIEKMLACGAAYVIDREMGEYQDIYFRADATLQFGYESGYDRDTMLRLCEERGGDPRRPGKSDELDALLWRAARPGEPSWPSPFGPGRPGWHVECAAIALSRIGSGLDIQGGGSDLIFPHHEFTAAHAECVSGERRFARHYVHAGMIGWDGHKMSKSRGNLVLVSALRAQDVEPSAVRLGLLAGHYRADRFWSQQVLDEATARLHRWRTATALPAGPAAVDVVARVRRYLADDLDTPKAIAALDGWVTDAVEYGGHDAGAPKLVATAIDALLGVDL

[2] = target: T1, MshC; conditions: for activity as alternative substrate to Cys, in words: 80 μM to 1.6 mM
[3] = target: T1, MshC; test: biochemical

N[C@@H](CCS)C(=O)O [L-homocysteine]
inhibition of the ligase activity, in words [1]: very minor inhibition | % inhibition ([1]; [inhibitor] 1600 μM): 0 ± 5% | relative spec. act. [2]: ≦0.2 | activity as alternative substrate to Cys, in words [2]: Nor was significant activity detected

N[C@H]1[C@@H](O[C@@H]2[C@H](O)[C@H](O)[C@@H](O)[C@H](O)[C@H]2O)O[C@H](CO)[C@@H](O)[C@@H]1O [GlcN-Ins, 1-O-(2-amino-2-deoxy-α-D-glucopyranosyl)-D-myo-inositol]
apparent Vmax ([2]; GlcN-Ins varied, 1 mM ATP and 0.5 mM Cys): 1160 ± 120 nmol/min/mg | Km ([2]; pH 7.5, read-out: apparent Km for GlcN-Ins): 280 ± 43 µM

C[C@H](N)C(=O)O [L-alanine]
inhibition of the ligase activity, in words [1]: very minor inhibition | % inhibition ([1]; [inhibitor] 5000 μM): 4 ± 8% | relative spec. act. [2]: ≦0.016 | activity as alternative substrate to Cys, in words [2]: Nor was significant activity detected

N[C@@H](CS)C(=O)O [Cys, L-cysteine]
apparent Vmax [2]: 1450 ± 200 nmol/min/mg | Specific activity ([2]; Cys 70 μM, 50 μM GlcN-Ins, 37° C.): ^cSpecific activity 108 nmol min^−1 mg^−1. | relative spec. act. ([2]; Cys 70 μM, reference): (100)^c | Km ([2]; as stated in the feedback inhibition paragraph, read-out: apparent Km value for Cys): 70 ± 15 µM | Km ([2]; pH 7.5, read-out: apparent Km for L-Cys): 85 ± 20 µM

CC[C@H](N)C(=O)O [L-α-aminobutyric acid]
inhibition of the ligase activity, in words [1]: very minor inhibition

O=C(O)CCS [β-mercaptopropionate, β-mercaptopropionic acid]
inhibition of the ligase activity, in words [1]: minor inhibition | % inhibition ([1]; [inhibitor] 1600 μM): −20 ± 20% | relative spec. act. [2]: ≦0.004

N[C@H]1C(O)O[C@H](CO)[C@@H](O)[C@@H]1O (stereo partly drawn) [D-GlcN]
activity relative to GlcN-Ins [2]: ~1% | relative spec. act. [2]: 1.2

N[C@H](CS)C(=O)O [D-Cys]
inhibition of the ligase activity, in words [1]: very minor inhibition | % inhibition ([1]; [inhibitor] 1600 μM): 15 ± 8% | relative spec. act. [2]: ≦0.7 | activity as alternative substrate to Cys, in words [2]: poor substrate

CCN1C(=O)c2ccccc2S(=O)(=O)c2ccc(C(=O)NCCCN3CCCCCC3)cc21 [Inhibitor 83-19]
IC50 ([3]; IC50): ~3000 µM

O=C(NCCN1CCCCCC1)c1ccc2c(c1)N(Cc1cccc(Cl)c1)C(=O)c1ccccc1[S+]2[O-] (centres unmarked) [Inhibitor 83-75]
inhibition of MshC in words, 1,3-diaminopropyl residue with remote amino residue capable of protonation [3]: measurable inhibition | inhibition of MshC in words, Z is a benzyl moiety bearing one or more halogens [3]: Measurable inhibition | IC50 ([3]; IC50): ~80 µM | inhibition of MshC in words, compounds grouped by X ([3]; X=S, X=SO, X=SO2): Significant inhibition

CN(CCCNC(=O)c1ccc2c(c1)N(Cc1ccccc1Cl)C(=O)c1ccccc1S2)c1ccccc1 [Inhibitor 1920]
inhibition of MshC in words, compounds lacking the basic amino group or with groups in excess of 10 carbons on the remote amino residue [3]: little or no inhibition | IC50 ([3]; IC50, μM): > 3000 µM

O=C(NCCN1CCCC1)c1ccc2c(c1)N(Cc1ccccc1F)C(=O)c1ccccc1S2(=O)=O [Inhibitor 83-39]
inhibition of MshC in words, 1,3-diaminopropyl residue with remote amino residue capable of protonation [3]: measurable inhibition | inhibition of MshC in words, Z is a benzyl moiety bearing one or more halogens [3]: Measurable inhibition | IC50 ([3]; IC50): 100 ± 20 µM | inhibition of MshC in words, compounds grouped by X ([3]; X=S, X=SO, X=SO2): Significant inhibition

CN(C)CCCNC(=O)c1ccc2c(c1)N(Cc1ccc(Cl)cc1)C(=O)c1ccccc1[S+]2[O-] (centres unmarked) [Inhibitor 1028]
inhibition of MshC in words, 1,3-diaminopropyl residue with remote amino residue capable of protonation [3]: measurable inhibition | inhibition of MshC in words, Z is a benzyl moiety bearing one or more halogens [3]: Measurable inhibition | inhibition of MshC in words, compounds grouped by X [3]: Significant inhibition | IC50 ([3]; IC50, μM): 335 ± 15 µM

O=C(NCCN1CCN(Cc2ccccc2)CC1)c1ccc2c(c1)N(Cc1ccccc1F)C(=O)c1ccccc1S2(=O)=O [Inhibitor 83-42]
inhibition of MshC in words, compounds lacking the basic amino group or with groups in excess of 10 carbons on the remote amino residue [3]: little or no inhibition | IC50 ([3]; IC50): > 3000 µM

CCCCN(CCCC)CCCNC(=O)c1ccc2c(c1)N(CC)C(=O)c1ccccc1[S+]2[O-] (centres unmarked) [Inhibitor 83-17]
IC50 ([3]; IC50): > 3000 µM

CCCCN(CCCNC(=O)c1ccc2c(c1)N(Cc1cccc(Cl)c1)C(=O)c1ccccc1[S+]2[O-])Cc1ccccc1 (centres unmarked) [Inhibitor 1940]
inhibition of MshC in words, compounds lacking the basic amino group or with groups in excess of 10 carbons on the remote amino residue [3]: little or no inhibition | IC50 ([3]; IC50, μM): > 3000 µM

CC1CCCN(CCCNC(=O)c2ccc3c(c2)N(Cc2ccccc2)C(=O)c2ccccc2S3(=O)=O)C1 (centres unmarked) [Inhibitor 83-51]
IC50 ([3]; IC50): 1700 ± 400 µM

CCC1CCCCN1CCCNC(=O)c1ccc2c(c1)N(Cc1ccccc1F)C(=O)c1ccccc1[S+]2[O-] (centres unmarked) [Inhibitor 1137]
inhibition of MshC in words, 1,3-diaminopropyl residue with remote amino residue capable of protonation [3]: measurable inhibition | inhibition of MshC in words, Z is a benzyl moiety bearing one or more halogens [3]: Measurable inhibition | IC50 ([3]; IC50, μM): 1400 ± 700 µM | inhibition of MshC in words, compounds grouped by X ([3]; X=S, X=SO, X=SO2): Significant inhibition
